Counter-ions that a name gives are not always drawn. Like-named read-outs stand apart in the source and are kept apart here.
What was measured:
Assay in all cases: In Vitro Anti-Bacterial Activity Test (MIC, agar dilution)
Assay type in all cases: cell-based
[1] = system: Enterobacter cloacae 1321E
Method: (§1) The above in vitro antibacterial activity test was carried out in accordance with the agar culture medium dilution method (Hoechst 345) by using Muller-Hinton agar medium to determine the minimum inhibitory concentration (MIC).
(§2) The strains having 10^7 C.F.U./ml were inoculated on the culture medium, and the growth of the strains was observed after incubating them at 37° C. for 18 hours, in which ciprofloxacin was used as a control antibacterial agent. In this test, twenty typical strains were used.

[2] = system: Streptococcus pyogenes 77A
Method: as §1, §2

[3] = system: Enterobacter cloacae P99
Method: as §1, §2

[4] = system: Escherichia coli DC0; conditions: Muller-Hinton agar, 37° C., 18 hours
Method: as §1, §2

[5] = system: Escherichia coli 1507E; conditions: Muller-Hinton agar, 37° C.
Method: as §1, §2

[6] = system: Escherichia coli DC2
Method: as §1, §2

[7] = system: Pseudomonas aeruginosa 1771M; conditions: Muller-Hinton agar, 37° C.
Method: as §1, §2

[8] = system: Escherichia coli 078
Method: as §1, §2

[9] = system: Streptococcus pyogenes 308A; conditions: Muller-Hinton agar, 37° C., 18 hours
Method: as §1, §2

[10] = system: Staphylococcus aureus 285; conditions: Staphylococcus aureus 285, Muller-Hinton agar, 37° C., 18 hours
Method: as §1, §2

[11] = system: Salmonella typhimurium; conditions: Salmonella typhimurium, Muller-Hinton agar, 37° C., 18 hours
Method: as §1, §2

[12] = system: Staphylococcus aureus SG511; conditions: Staphylococcus aureus SG511, Muller-Hinton agar, 37° C., 18 hours
Method: as §1, §2

[13] = system: Pseudomonas aeruginosa 1592E; conditions: Muller-Hinton agar, 37° C., 18 hours
Method: as §1, §2

[14] = system: Escherichia coli TEM; conditions: Muller-Hinton agar, 37° C.
Method: as §1, §2

[15] = system: Streptococcus faecium MD8b; conditions: Muller-Hinton agar, 37° C., 18 hours
Method: as §1, §2

[16] = system: Klebsiella aerogenes 1522E; conditions: Klebsiella aerogenes 1522E, Muller-Hinton agar, 37° C., 18 hours
Method: as §1, §2

[17] = system: Pseudomonas aeruginosa 1771; conditions: Pseudomonas aeruginosa 1771, Muller-Hinton agar, 37° C., 18 hours
Method: as §1, §2

[18] = system: Staphylococcus aureus 503; conditions: Staphylococcus aureus 503, Muller-Hinton agar, 37° C., 18 hours
Method: as §1, §2

[19] = system: Pseudomonas aeruginosa 9027; conditions: Muller-Hinton agar, 37° C., 18 hours
Method: as §1, §2

[20] = system: Klebsiella oxytoca 1082E; conditions: Klebsiella oxytoca 1082E, Muller-Hinton agar, 37° C., 18 hours
Method: as §1, §2

[21] = Enterobacter cloacae 1321E, Muller-Hinton agar, 37° C., 18 hours, read-out: MIC
[22] = Streptococcus pyogenes, 77A, 18 h
[23] = Enterobacter cloacae, P99, 18 h
[24] = Pseudomonas aeruginosa, 1771M, 18 h
[25] = Escherichia coli 078, Muller-Hinton agar, 37° C., 18 hours, read-out: MIC
[26] = Salmonella enterica, read-out: MIC
[27] = Enterococcus faecium, read-out: MIC
[28] = Klebsiella aerogenes, 1522E, 18 h, read-out: MIC
[29] = Staphylococcus aureus, 285, 18 h, read-out: MIC
[30] = Streptococcus pyogenes 77A, Muller-Hinton agar, 37° C., 18 hours, read-out: MIC

Compound	MIC [1, 21]	MIC [2, 22]	MIC [3, 23]	MIC ([4]; read-out: MIC)	MIC ([5]; Escherichia coli, 1507E, 18 h)	MIC ([6]; Escherichia coli, DC2, 18 h)	MIC [7, 24]	MIC ([9]; read-out: MIC)	MIC [11, 26]	MIC ([12]; read-out: MIC)	MIC ([13]; read-out: MIC)	MIC ([14]; Escherichia coli, 18 h)	MIC [15, 27]	MIC [16, 28]	MIC ([17]; read-out: MIC)	MIC ([18]; read-out: MIC)	MIC ([19]; read-out: MIC)	MIC ([20]; read-out: MIC)	MIC [10, 29]	MIC ([8]; Escherichia coli, 078, 18 h)	further results
1-cyclopropyl-6-fluoro-8-chloro-7-(7-amino-5-azaspiro[2.4]hept-5-yl)-3-(2- nitroacetyl)-1,4-dihydro-4-oxoquinoline hydrochloride [Example 35]	–	–	–	–	–	–	–	–	–	–	–	–	–	–	–	–	–	–	–	–	MIC ([1]; Enterobacter cloacae 1321E, Muller-Hinton agar, 37° C., 18 hours): 0.025 µg/mL; MIC ([2]; Streptococcus pyogenes 77A, Muller-Hinton agar, 37° C., 18 hours): 0.098 µg/mL; MIC ([3]; Enterobacter cloacae P99, Muller-Hinton agar, 37° C., 18 hours): 0.025 µg/mL; MIC [4]: 0.098 µg/mL; MIC ([5]; 18 hours): 0.007 µg/mL; MIC ([6]; Escherichia coli DC2, Muller-Hinton agar, 37° C., 18 hours): 0.049 µg/mL; MIC ([7]; 18 hours): 0.098 µg/mL; MIC ([8]; Escherichia coli 078, Muller-Hinton agar, 37° C., 18 hours): 0.007 µg/mL; MIC [9]: 0.195 µg/mL; MIC [10]: 0.025 µg/mL; MIC [11]: 0.013 µg/mL; MIC [12]: 0.025 µg/mL; MIC [13]: 0.781 µg/mL; MIC ([14]; 18 hours): 0.013 µg/mL; MIC [15]: 0.098 µg/mL; MIC [16]: 0.013 µg/mL; MIC [17]: 0.391 µg/mL; MIC [18]: 0.013 µg/mL; MIC [19]: 0.781 µg/mL; MIC [20]: < 0.002 µg/mL
O=C(C[N+](=O)[O-])c1cn(C2CC2)c2cc(N3CCNCC3)c(F)cc2c1=O [Example 4, 1-cyclopropyl-6-fluoro-7-(piperazin-1-yl)-3-(2-nitroacetyl)-1,4-dihydro-4-oxoquinoline hydrochloride]	< 0.002 µg/mL	0.781 µg/mL	0.007 µg/mL	0.195 µg/mL	0.007 µg/mL	0.391 µg/mL	0.098 µg/mL	3.12 µg/mL	0.007 µg/mL	0.195 µg/mL	0.195 µg/mL	0.013 µg/mL	0.781 µg/mL	0.013 µg/mL	0.195 µg/mL	0.781 µg/mL	0.195 µg/mL	< 0.002 µg/mL	–	–	MIC [8, 25]: < 0.002 µg/mL; MIC ([10]; hydrochloride): 0.391 µg/mL
O=C(C[N+](=O)[O-])c1cn(C2CC2)c2cc(N3CCNCC3)c(F)cc2c1=O [Example 5, 1-cyclopropyl-6-fluoro-7-(piperazin-1-yl)-3-(2-nitroacetyl)-1,4-dihydro-4-oxoquinoline trifluoroacetate]	–	–	–	–	–	–	–	–	–	–	–	–	–	–	–	–	–	–	–	–	MIC ([5]; 18 hours, read-out: MIC): 0.013 µg/mL; MIC ([7]; 18 hours, trifluoroacetate): 0.049 µg/mL; MIC ([10]; trifluoroacetate): 0.195 µg/mL; MIC ([14]; 18 hours, trifluoroacetate): 0.007 µg/mL; MIC ([16]; trifluoroacetate): 0.025 µg/mL
O=C(C[N+](=O)[O-])c1cn(C2CC2)c2c(F)c(N3CCNCC3)c(F)cc2c1=O [Example 6, 1-cyclopropyl-6,8-difluoro-7-(piperazin-1-yl)-3-(2-nitroacetyl)-1,4-dihydro-4-oxoquinoline hydrochloride]	< 0.002 µg/mL	0.781 µg/mL	< 0.002 µg/mL	0.195 µg/mL	–	0.098 µg/mL	0.049 µg/mL	3.12 µg/mL	< 0.002 µg/mL	0.098 µg/mL	0.195 µg/mL	< 0.002 µg/mL	0.781 µg/mL	0.007 µg/mL	0.195 µg/mL	0.391 µg/mL	0.391 µg/mL	< 0.002 µg/mL	0.195 µg/mL	–	MIC ([5]; 18 hours, read-out: MIC): < 0.002 µg/mL; MIC [8, 25]: < 0.002 µg/mL
CC1CN(c2c(F)cc3c(=O)c(C(=O)C[N+](=O)[O-])cn(C4CC4)c3c2F)CCN1 (centres unmarked) [Example 7, 1-cyclopropyl-6,8-difluoro-7-(3-methylpiperazin-1-yl)-3-(2-nitroacetyl)-1,4-dihydro-4-oxoquinoline hydrochloride]	0.013 µg/mL	0.781 µg/mL	0.391 µg/mL	0.391 µg/mL	0.025 µg/mL	0.391 µg/mL	0.391 µg/mL	1.56 µg/mL	0.098 µg/mL	0.391 µg/mL	0.781 µg/mL	0.195 µg/mL	0.781 µg/mL	0.391 µg/mL	1.56 µg/mL	0.391 µg/mL	0.781 µg/mL	< 0.002 µg/mL	0.391 µg/mL	0.049 µg/mL	–
NC1CCN(c2nc3c(cc2F)c(=O)c(C(=O)C[N+](=O)[O-])cn3-c2ccc(F)cc2F)C1 (centres unmarked) [Example 8, 1-(2,4-difluorophenyl)-6-fluoro-7-(3-aminopyrrolidin-1-yl)-3-(2-nitroacetyl)-1,4-dihydro-4-oxo-1,8-naphthyridinehydrochloride]	< 0.002 µg/mL	–	< 0.002 µg/mL	0.195 µg/mL	0.007 µg/mL	0.013 µg/mL	0.049 µg/mL	0.781 µg/mL	0.007 µg/mL	0.049 µg/mL	0.195 µg/mL	< 0.002 µg/mL	0.391 µg/mL	0.007 µg/mL	0.391 µg/mL	0.025 µg/mL	0.391 µg/mL	< 0.002 µg/mL	0.025 µg/mL	0.007 µg/mL	MIC [2, 30]: 0.195 µg/mL
NC1CCN(c2cc3c(cc2F)c(=O)c(C(=O)C[N+](=O)[O-])cn3-c2ccc(F)cc2F)C1 (centres unmarked) [Example 9, 1-(2,4-difluorophenyl)-6-fluoro-7-(3-aminopyrrolidin-1-yl)-3-(2-nitroacetyl)-1,4-dihydro-4-oxoquinoline hydrochloride]	–	–	< 0.002 µg/mL	0.195 µg/mL	0.013 µg/mL	0.025 µg/mL	0.049 µg/mL	0.195 µg/mL	0.007 µg/mL	0.025 µg/mL	0.098 µg/mL	< 0.002 µg/mL	0.195 µg/mL	0.004 µg/mL	0.195 µg/mL	0.013 µg/mL	0.391 µg/mL	< 0.002 µg/mL	0.025 µg/mL	0.007 µg/mL	MIC ([1]; Enterobacter cloacae, 1321E, 18 h): 0.007 µg/mL; MIC [2, 30]: 0.195 µg/mL
CC1CN(c2cc3c(cc2F)c(=O)c(C(=O)C[N+](=O)[O-])cn3-c2ccc(F)cc2F)CCN1 (centres unmarked) [Example 10, 1-(2,4-difluorophenyl)-6-fluoro-7-(3-methylpiperazin-1-yl)-3-(2-nitroacetyl)-1,4-dihydro-4-oxoquinoline hydrochloride]	0.049 µg/mL	0.781 µg/mL	0.049 µg/mL	1.56 µg/mL	0.098 µg/mL	0.391 µg/mL	1.56 µg/mL	1.56 µg/mL	0.049 µg/mL	0.391 µg/mL	1.56 µg/mL	0.098 µg/mL	1.56 µg/mL	1.56 µg/mL	3.12 µg/mL	0.391 µg/mL	3.12 µg/mL	0.025 µg/mL	0.391 µg/mL	0.049 µg/mL	–
CCOC(=O)C(C(=O)OCC)C(=O)c1cn(C2CC2)c2c(OC)c(N3CC[C@H](NC)C3)c(F)cc2c1=O [Example 59, 1-cyclopropyl-6-fluoro-8-methoxy-7-(3-3S-methylaminopyrrolidin-1-yl)-3-(2,2-diethoxycarbonylacetyl)-1,4-dihydro-4-oxoquinoline hydrochloride]	0.049 µg/mL	0.781 µg/mL	0.049 µg/mL	0.781 µg/mL	0.391 µg/mL	0.098 µg/mL	0.781 µg/mL	0.781 µg/mL	0.049 µg/mL	0.098 µg/mL	–	0.049 µg/mL	0.781 µg/mL	0.098 µg/mL	1.56 µg/mL	0.098 µg/mL	1.56 µg/mL	0.007 µg/mL	0.098 µg/mL	0.049 µg/mL	–

Reference: US5409933A, “Quinoline derivatives and processes for preparing the same” (priority 1993, dated 1995)
